Data: PubChem BioAssay AID256 (DTP/NCI, 2004)
Where “and” joins values, the source holds several entries; their conditions need not be identical. Identical values can stand only once. Inconclusive results and toxic doses are left out.

Tested on: CD2F1 mice, L1210 leukemia ip, survival T/C
Experiment: NCI In Vivo Anticancer Drug Screen. Data for tumor model L1210 Leukemia (intraperitoneal) in CD2F1 (CDF1) mice
Conditions: higher = longer survival
In short: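 Compound-dosed mice with transplantable tumor versus matched vehicle controls; endpoint ratio T/C reported.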

[1] = endpoint: mean survival time, dose: 50.0 mg/kg/injection, schedule: Q01DX009 (ip), vehicle: saline with Tween-80
[2] = endpoint: mean survival time, dose: 100.0 mg/kg/injection, schedule: Q01DX009 (ip), vehicle: saline with Tween-80
[3] = endpoint: mean survival time, dose: 200.0 mg/kg/injection, schedule: Q01DX009 (ip), vehicle: saline with Tween-80
[4] = endpoint: mean survival time, dose: 100.0 mg/kg/injection, schedule: Q01DX001 (ip), vehicle: saline with Tween-80
[5] = endpoint: mean survival time, dose: 200.0 mg/kg/injection, schedule: Q01DX001 (ip), vehicle: saline with Tween-80
[6] = endpoint: mean survival time, dose: 100.0 mg/kg/injection, schedule: Q04DX003 (ip), vehicle: saline with Tween-80
[7] = endpoint: mean survival time, dose: 200.0 mg/kg/injection, schedule: Q04DX003 (ip), vehicle: saline with Tween-80
[8] = endpoint: mean survival time, dose: 400.0 mg/kg/injection, schedule: Q01DX009 (ip), vehicle: saline with Tween-80
[9] = endpoint: mean survival time, dose: 400.0 mg/kg/injection, schedule: Q04DX003 (ip), vehicle: saline with Tween-80
[10] = endpoint: mean survival time, dose: 100.0 mg/kg/injection, schedule: Q01DX001 (ip), vehicle: saline
[11] = endpoint: mean survival time, dose: 200.0 mg/kg/injection, schedule: Q01DX001 (ip), vehicle: saline
[12] = endpoint: mean survival time, dose: 100.0 mg/kg/injection, schedule: Q04DX003 (ip), vehicle: saline
[13] = endpoint: mean survival time, dose: 100.0 mg/kg/injection, schedule: Q04DX003 (ip), vehicle: Klucel (hydroxypropylcellulose) (HPC)
[14] = endpoint: mean survival time, dose: 200.0 mg/kg/injection, schedule: Q04DX003 (ip), vehicle: Klucel (hydroxypropylcellulose) (HPC)
[15] = endpoint: mean survival time, dose: 100.0 mg/kg/injection, schedule: Q04DX002 (ip), vehicle: saline with Tween-80
[16] = endpoint: mean survival time, dose: 200.0 mg/kg/injection, schedule: Q04DX002 (ip), vehicle: saline with Tween-80
[17] = endpoint: mean survival time, dose: 400.0 mg/kg/injection, schedule: Q04DX002 (ip), vehicle: saline with Tween-80

SMILES: CCOC(=O)CCCCCSc1nn(C2OC(CO)C(O)C2O)c(=O)[nH]c1=O (stereo unspecified)
- T/C (endpoint: mean survival time, dose: 12.5 mg/kg/injection, schedule: Q01DX005 (ip), vehicle: distilled water + Tween-80): 103 % of control
- T/C (endpoint: mean survival time, dose: 25.0 mg/kg/injection, schedule: Q01DX005 (ip), vehicle: distilled water + Tween-80): 98 % of control
- T/C (endpoint: mean survival time, dose: 50.0 mg/kg/injection, schedule: Q01DX005 (ip), vehicle: distilled water + Tween-80): 104 % of control
- T/C (endpoint: mean survival time, dose: 100.0 mg/kg/injection, schedule: Q01DX005 (ip), vehicle: distilled water + Tween-80): 103 % of control
- T/C (endpoint: mean survival time, dose: 200.0 mg/kg/injection, schedule: Q01DX005 (ip), vehicle: distilled water + Tween-80): 97 % of control

SMILES: CCCCCCSC(=O)Nc1ccc(C)c(NC(=O)SCCCCCC)c1
- T/C [1]: 95 % of control
- T/C [2]: 93 % of control
- T/C [3]: 93 % of control

SMILES: O=[N+]([O-])c1ccc(C[P+](c2ccccc2)(c2ccccc2)c2ccccc2)cc1
- T/C (endpoint: mean survival time, dose: 6.25 mg/kg/injection, schedule: Q04DX002 (ip), vehicle: saline with Tween-80): 86 % of control
- T/C (endpoint: mean survival time, dose: 12.5 mg/kg/injection, schedule: Q04DX002 (ip), vehicle: saline with Tween-80): 108 % of control
- T/C (endpoint: mean survival time, dose: 25.0 mg/kg/injection, schedule: Q04DX002 (ip), vehicle: saline with Tween-80): 94 % of control

SMILES: C/C(=N\Nc1ccc([N+](=O)[O-])cc1[N+](=O)[O-])C1CCC(=O)O1 (stereo unspecified)
- T/C (endpoint: mean survival time, dose: 50.0 mg/kg/injection, schedule: Q01DX001 (ip), vehicle: saline with Tween-80): 109 % of control
- T/C [4]: 103 % of control
- T/C [5]: 103 % of control

SMILES: Nc1ncc(C(=O)c2ccccc2)cc1[N+](=O)[O-]
- T/C [6]: 96 % of control
- T/C [7]: 96 % of control

SMILES: CCOC(=O)c1ccc(NCN2C(=O)CCC2=O)cc1
- T/C [2]: 95 % of control
- T/C [3]: 101 % of control
- T/C [8]: 102 % of control

SMILES: O=C1NC(O)CCN1C1OC(CO)C(O)C1O (stereo unspecified)
- T/C (endpoint: median survival time, dose: 10.0 mg/kg/injection, schedule: Q01DX009 (ip), vehicle: saline): 106 % of control and 107 % of control
- T/C (endpoint: median survival time, dose: 12.5 mg/kg/injection, schedule: Q01DX001 (oral), vehicle: saline): 101 % of control
- T/C (endpoint: median survival time, dose: 21.88 mg/kg/injection, schedule: Q01DX009 (ip), vehicle: saline): 102 % of control
- T/C (endpoint: median survival time, dose: 25.0 mg/kg/injection, schedule: Q01DX001 (oral), vehicle: saline): 102 % of control
- T/C (endpoint: median survival time, dose: 30.0 mg/kg/injection, schedule: Q01DX009 (ip), vehicle: saline): 104 % of control
- T/C (endpoint: median survival time, dose: 50.0 mg/kg/injection, schedule: Q01DX001 (oral), vehicle: saline): 101 % of control
- T/C (endpoint: median survival time, dose: 100.0 mg/kg/injection, schedule: Q01DX001 (oral), vehicle: saline): 97 % of control
- T/C (endpoint: median survival time, dose: 100.0 mg/kg/injection, schedule: Q01DX009 (ip), vehicle: saline): 105 % of control
- T/C (endpoint: median survival time, dose: 200.0 mg/kg/injection, schedule: Q01DX001 (oral), vehicle: saline): 102 % of control
- T/C (endpoint: median survival time, dose: 300.0 mg/kg/injection, schedule: Q01DX009 (ip), vehicle: saline): 106 % of control
- T/C (endpoint: median survival time, dose: 1000.0 mg/kg/injection, schedule: Q01DX009 (ip), vehicle: saline): 100 % of control and 108 % of control

SMILES: CCOC(=O)/C=C1\NC(=O)CS1
- T/C [2]: 97 % of control
- T/C [6]: 100 % of control
- T/C [3]: 95 % of control
- T/C [7]: 100 % of control
- T/C [8]: 103 % of control
- T/C [9]: 100 % of control

SMILES: CCC[CH2][Sn]([CH2]CC)([CH2]CCC)[O]C(=O)c1ccccc1
- T/C (endpoint: mean survival time, dose: 0.78 mg/kg/injection, schedule: Q01DX009 (ip), vehicle: saline with Tween-80): 104 % of control
- T/C (endpoint: mean survival time, dose: 1.56 mg/kg/injection, schedule: Q01DX009 (ip), vehicle: saline with Tween-80): 107 % of control

SMILES: c1cnc(N2CC2)nn1
- T/C [10]: 105 % of control
- T/C [11]: 113 % of control

SMILES: NNC(=O)c1cccc(C(=O)NN)c1
- T/C [2]: 96 % of control
- T/C [6]: 93 % of control
- T/C [3]: 93 % of control
- T/C [7]: 95 % of control
- T/C [8]: 98 % of control
- T/C [9]: 92 % of control

SMILES: O=C([O][Sb]([O]C(=O)C(Cl)(Cl)Cl)([c]1ccccc1)([c]1ccccc1)[c]1ccccc1)C(Cl)(Cl)Cl
- T/C [6]: 100 % of control
- T/C [7]: 93 % of control
- T/C [9]: 93 % of control

SMILES: COC(=O)NC(/C=C/c1ccccc1)c1ccccc1 (stereo unspecified)
- T/C (endpoint: mean survival time, dose: 100.0 mg/kg/injection, schedule: Q04DX003 (ip), vehicle: other): 94 % of control
- T/C (endpoint: mean survival time, dose: 200.0 mg/kg/injection, schedule: Q04DX003 (ip), vehicle: other): 97 % of control
- T/C (endpoint: mean survival time, dose: 400.0 mg/kg/injection, schedule: Q04DX003 (ip), vehicle: other): 97 % of control

SMILES: C=CCNc1ncnc2c1cnn2C
- T/C [12]: 106 % of control
- T/C (endpoint: mean survival time, dose: 200.0 mg/kg/injection, schedule: Q04DX003 (ip), vehicle: saline): 104 % of control

SMILES: O=c1[nH]cc(F)c(=O)n1C1CCCCO1 (stereo unspecified)
- T/C (endpoint: mean survival time, dose: 12.5 mg/kg/injection, schedule: Q01DX009 (ip), vehicle: saline): 121 % of control
- T/C (endpoint: mean survival time, dose: 12.5 mg/kg/injection, schedule: Q04DX003 (ip), vehicle: saline): 98 % of control
- T/C (endpoint: mean survival time, dose: 25.0 mg/kg/injection, schedule: Q04DX003 (ip), vehicle: saline): 102 % of control
- T/C (endpoint: mean survival time, dose: 50.0 mg/kg/injection, schedule: Q01DX009 (ip), vehicle: saline): 156 % of control
- T/C (endpoint: mean survival time, dose: 50.0 mg/kg/injection, schedule: Q04DX003 (ip), vehicle: saline): 98 % of control
- T/C (endpoint: mean survival time, dose: 100.0 mg/kg/injection, schedule: Q01DX009 (ip), vehicle: saline): 175 % of control and 184 % of control
- T/C [12]: 100 % of control

SMILES: O=S(=O)(O)c1ccc(O)cc1
- T/C [10]: 103 % of control
- T/C [11]: 108 % of control
- T/C (endpoint: mean survival time, dose: 400.0 mg/kg/injection, schedule: Q01DX001 (ip), vehicle: saline): 100 % of control

SMILES: O=C1C=C(Nc2ccc([N+](=O)[O-])cc2)c2ccccc2C1=O
- T/C (endpoint: mean survival time, dose: 75.0 mg/kg/injection, schedule: Q01DX001 (ip), vehicle: saline): 95 % of control
- T/C (endpoint: mean survival time, dose: 150.0 mg/kg/injection, schedule: Q01DX001 (ip), vehicle: saline): 91 % of control

SMILES: O=C(c1ccc(F)cc1)c1ccc([N+](=O)[O-])cc1
- T/C [2]: 103 % of control
- T/C [3]: 102 % of control
- T/C [8]: 97 % of control

SMILES: C(=N\Nc1nc2ccccc2o1)/c1ccncc1
- T/C [13]: 103 % of control
- T/C [14]: 95 % of control
- T/C (endpoint: mean survival time, dose: 400.0 mg/kg/injection, schedule: Q04DX003 (ip), vehicle: Klucel (hydroxypropylcellulose) (HPC)): 101 % of control

SMILES: COc1ccc(OC)c(NC(=O)Nc2cc([N+](=O)[O-])ccc2Cl)c1
- T/C [4]: 91 % of control
- T/C [2]: 93 % of control and 95 % of control
- T/C [15]: 92 % of control and 95 % of control
- T/C [6]: 101 % of control
- T/C [5]: 88 % of control
- T/C [3]: 115 % of control and 98 % of control
- T/C [16]: 91 % of control and 96 % of control
- T/C [7]: 96 % of control
- T/C [8]: 100 % of control and 101 % of control
- T/C [17]: 96 % of control and 104 % of control
- T/C [9]: 96 % of control

SMILES: CSCCC(NC=O)C(=O)O (stereo unspecified)
- T/C (endpoint: mean survival time, dose: 12.5 mg/kg/injection, schedule: Q01DX001 (ip), vehicle: saline): 98 % of control
- T/C (endpoint: mean survival time, dose: 25.0 mg/kg/injection, schedule: Q01DX001 (ip), vehicle: saline): 93 % of control
- T/C (endpoint: mean survival time, dose: 50.0 mg/kg/injection, schedule: Q01DX001 (ip), vehicle: saline): 106 % of control

SMILES: CC(=O)N(CC(=O)O)c1ccccc1
- T/C [2]: 98 % of control
- T/C [3]: 96 % of control
- T/C [8]: 96 % of control

SMILES: O=C1/C(=C/c2ccc(Cl)cc2Cl)CCC/C1=C\c1ccc(Cl)cc1Cl
- T/C [2]: 87 % of control

SMILES: C/C(=N/O)c1cc(CN(C)C)oc1C
- T/C [1]: 92 % of control
- T/C [4]: 113 % of control
- T/C [2]: 90 % of control
- T/C [5]: 101 % of control
- T/C [3]: 91 % of control

SMILES: O=S1(=O)OC2(CCCCC2)c2ccccc21
- T/C [4]: 95 % of control
- T/C [15]: 96 % of control
- T/C [5]: 95 % of control
- T/C [16]: 90 % of control
- T/C (endpoint: mean survival time, dose: 400.0 mg/kg/injection, schedule: Q01DX001 (ip), vehicle: saline with Tween-80): 100 % of control
- T/C [17]: 93 % of control

SMILES: O=C(O)c1ccccc1S(=O)(=O)c1ccccc1
- T/C [6]: 93 % of control
- T/C [7]: 88 % of control
- T/C [9]: 95 % of control

SMILES: C#CCCCOC(=O)Nc1ccccc1
- T/C [13]: 97 % of control
- T/C [14]: 95 % of control

SMILES: CC(=O)C1CCC2C3=CC=C4CC(OC(=O)c5ccccc5)CCC4(C)C3CCC12C (stereo unspecified)
- T/C [6]: 101 % of control
- T/C [7]: 98 % of control
- T/C [9]: 102 % of control

SMILES: COC1=CC(=O)c2ccccc2C1=O
- T/C [6]: 91 % of control
- T/C [7]: 87 % of control
